The source of these data is patent publication US8026368B2, “Hydrazide compounds and thrombopoietin receptor activators” (Nissan Chemical Industries, Ltd., priority 2005, dated 2011).

The first test concerns the target T1, human thrombopoietin receptor (c-mpl) (Homo sapiens, UniProt P40238).
T1 construct: expressed in transfected cells
T1 sequence (P40238 26-635): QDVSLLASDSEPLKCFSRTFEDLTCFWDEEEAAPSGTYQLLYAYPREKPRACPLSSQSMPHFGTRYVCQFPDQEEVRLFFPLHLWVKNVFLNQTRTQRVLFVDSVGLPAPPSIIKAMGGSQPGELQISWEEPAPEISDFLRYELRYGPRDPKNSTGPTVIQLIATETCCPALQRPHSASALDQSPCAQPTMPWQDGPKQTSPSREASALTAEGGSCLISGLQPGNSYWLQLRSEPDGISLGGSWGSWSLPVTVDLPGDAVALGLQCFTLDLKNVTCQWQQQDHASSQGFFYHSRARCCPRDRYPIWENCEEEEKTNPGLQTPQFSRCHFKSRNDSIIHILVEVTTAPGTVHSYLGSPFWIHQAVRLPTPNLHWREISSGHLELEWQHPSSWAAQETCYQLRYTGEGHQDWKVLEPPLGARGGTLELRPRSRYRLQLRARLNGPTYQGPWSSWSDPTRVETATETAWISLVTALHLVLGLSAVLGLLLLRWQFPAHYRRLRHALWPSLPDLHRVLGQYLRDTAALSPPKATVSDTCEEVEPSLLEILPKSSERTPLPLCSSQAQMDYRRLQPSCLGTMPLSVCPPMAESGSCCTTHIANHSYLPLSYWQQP
In words: Stimulation of proliferation of thrombopoietin-dependent cell line UT7/EPO-mpl (WST-8). As to conditions: human leukemic cell line UT-7/EPO-mpl, 4 days incubation, WST-8, relative to 10 ng/mL TPO; read-out: EC50 (concentration that yields a growth rate corresponding to 50% of the growth observed in the presence of 10 ng/mL TPO) (converted). In kind it is cell-based. The method, then: The responses of thrombopoietin receptor to the compounds of the present invention prepared in the Synthetic Examples were assayed using a human leukemic cell line, UT7/EPO-mpl.
UT7/EPO-mpl is a stable transformed cell line obtained by introducing into human leukemic cell line UT7/EPO a vector that induces expression of human thrombopoietin receptor (c-mpl) under control of cytomegalovirus immediate-early promoter by the method of Takatoku et al. (J. Biol. Chem., 272:7259-7263 (1997)). […] These two cell lines were subcultured in IMDM (GIBCO) containing 10% fetal bovine serum (Thermo Electron or BioWest) using a CO2 incubator (5% CO2, 37° C.).
The subcultured cells described above were washed twice with PBS and suspended in IMDM containing 10% fetal bovine serum at a cell density of 6×10^4 cells/ml. The cell suspension was transferred to a 96-well tissue culture plate (CORNING) in 100-μl aliquots. Then either thrombopoietin (Pepro Tech EC) or the compounds of the Synthetic Examples dissolved in dimethyl sulfoxide were diluted 83-fold with IMDM containing 10% fetal bovine serum and added to the aforementioned cell suspension in 20-μl aliquots. The cell suspension was incubated in a CO2 incubator (5% CO2, 37° C.) for 4 days. Cell proliferation was assayed using WST-8 reagent (Kishida Chemical Co., Ltd.) according to instructions by the manufacturer. A 10-μl aliquot of 5 mM WST-8 reagent solution was added to each well of the tissue culture plate, and the plate was incubated at 37° C. for 4 hours. The formazan pigment generated was detected by measuring the absorbance at 450 nm with a 96-well microplate reader (Nihon Molecular Devices, Spectramax 190).
The concentration of each compound that yields a growth rate corresponding to 50% of the growth of human leukemic cell line UT-7/EPO-mpl observed in the presence of 10 ng/mL TPO (EC50) in the test on the compounds of the Synthetic Examples in Assay Example 1 are shown in Table 16.
For `CC1=NN(c2ccc(Cl)c(Cl)c2)C(=O)/C1=C(/C)NNC(=O)c1ccc(C(=O)N2CCC(N3CCCC3)CC2)s1` [Example 41], the EC50 was 4.75 nM. `CC1=NN(c2ccc(C)c(C)c2)C(=O)/C1=C(/C)NNC(=O)c1ccc(C(=O)NCc2cccnc2)s1` [Example 8]: the EC50 is 0.676 nM. Consider `CC1=NN(c2ccc(C(C)(C)C)cc2)C(=O)/C1=C(/C)NNC(=O)c1ccc(C(=O)N2CCC(N(C)C)C2)s1` (stereo not shown) [Example 18], for which the EC50 was 5.03 nM. As to `CC1=NN(c2ccc(C(F)(F)F)cc2)C(=O)/C1=C(/C)NNC(=O)c1ccc(C(=O)NN(C)C)s1` [Example 33], the EC50 is 4.45 nM. On the same count and under the same terms, as for `CC1=NN(c2ccc(C)c(C)c2)C(=O)/C1=C(/C)NNC(=O)c1ccc(C(=O)NN(C)C)s1` [Example 5], the figure is 6.16 nM; as for `CC1=NN(c2ccc(C(C)(C)C)cc2)C(=O)/C1=C(/C)NNC(=O)c1ccc(C(=O)NCCC(=O)O)s1` [Example 24], 5.86 nM; as for `CC1=NN(c2ccc(C(F)(F)F)cc2)C(=O)/C1=C(/C)NNC(=O)c1ccc(C(=O)NC(C)C)s1` [Example 28], 0.871 nM. As to `CNC(=O)c1ccc(C(=O)NN/C(C)=C2\C(=O)N(c3ccc(C(C)(C)C)cc3)N=C2C)s1` [Example 25], the EC50 was 0.661 nM. Turning to `CC1=NN(c2ccc(C(C)(C)C)cc2)C(=O)/C1=C(/C)NNC(=O)c1ccc(C(=O)N2CCCC2)s1` [Example 15], the EC50 is 5.27 nM. Turning to `CC1=NN(c2ccc(Cl)c(Cl)c2)C(=O)/C1=C(/C)NNC(=O)c1ccc(C(=O)NCc2ccccn2)s1` [Example 42], the EC50 was 5.34 nM.

Regarding `CCCNC(=O)c1ccc(C(=O)NN/C(C)=C2\C(=O)N(c3ccc(C(C)(C)C)cc3)N=C2C)s1` [Example 27], the EC50 was 1.6 nM. Regarding `CCN(CC)C(=O)c1ccc(C(=O)NN/C(C)=C2\C(=O)N(c3ccc(C(F)(F)F)cc3)N=C2C)s1` [Example 31], the EC50 was 8.28 nM. `CC1=NN(c2ccc(C(F)(F)F)cc2)C(=O)/C1=C(/C)NNC(=O)c1ccc(C(=O)N2CC(O)C(O)C2)s1` (stereo not shown) [Example 30]: the EC50 was 5.02 nM.

Take `CC1=NN(c2ccc(Cl)c(Cl)c2)C(=O)/C1=C(/C)NNC(=O)c1ccc(C(=O)NN(C)C)s1` [Example 40]: the EC50 is 5.65 nM. The same measure, in the same setting: the same measure for `CC1=NN(c2ccc(C(C)(C)C)cc2)C(=O)/C1=C(/C)NNC(=O)c1ccc(C(=O)NCC(=O)O)s1` [Example 23]: 6.23 nM. As to `CC1=NN(c2ccc(Cl)c(Cl)c2)C(=O)/C1=C(/C)NNC(=O)c1ccc(C(=O)NCc2cccnc2)s1` [Example 43], the EC50 was 4.6 nM. As to `CC1=NN(c2ccc(C(C)(C)C)cc2)C(=O)/C1=C(/C)NNC(=O)c1ccc(C(=O)N2CC(O)C(O)C2)s1` (stereo not shown) [Example 13], the EC50 is 1.01 nM.

Consider `CC1=NN(c2ccc(C(F)(F)F)cc2)C(=O)/C1=C(/C)NNC(=O)c1ccc(C(=O)N2CCC(N3CCCC3)CC2)s1` [Example 34], for which the EC50 is 4.25 nM.

Take `CNC(=O)c1ccc(C(=O)NN/C(C)=C2\C(=O)N(c3ccc(C)c(C)c3)N=C2C)s1` [Example 10]: the EC50 was 5.17 nM. As to `CC1=NN(c2ccc(C(C)(C)C)cc2)C(=O)/C1=C(/C)NNC(=O)c1ccc(C(=O)NN2CCOCC2)s1` [Example 21], the EC50 is 1.2 nM. Still for that read-out and setting: as for `CC1=NN(c2ccc(C)c(C)c2)C(=O)/C1=C(/C)NNC(=O)c1ccc(C(=O)NCc2ccccn2)s1` [Example 7], the figure is 3.58 nM. For the compound `CC1=NN(c2ccc(C(F)(F)F)cc2)C(=O)/C1=C(/C)NNC(=O)c1ccc(C(=O)NCc2ccncc2)s1` [Example 29], the EC50 was 1.59 nM. On the same count and under the same terms, as for `CC1=NN(c2ccc(C(C)(C)C)cc2)C(=O)/C1=C(/C)NNC(=O)c1ccc(C(=O)N2CCC(N3CCCC3)CC2)s1` [Example 17], the figure is 3.99 nM; as for `COC1CN(C(=O)c2ccc(C(=O)NN/C(C)=C3\C(=O)N(c4ccc(Cl)c(Cl)c4)N=C3C)s2)CC1OC` (stereo not shown) [Example 44], 11.3 nM; as for `CC1=NN(c2ccc(C)c(C)c2)C(=O)/C1=C(/C)NNC(=O)c1ccc(C(=O)NCc2ccncc2)s1` [Example 2], 1.63 nM. With `CC1=NN(c2ccc(C)c(C)c2)C(=O)/C1=C(/C)NNC(=O)c1ccc(C(=O)N2CCCC2)s1` [Example 4], the EC50 is 7.52 nM. Regarding `CCN(CC)C(=O)c1ccc(C(=O)NN/C(C)=C2\C(=O)N(c3ccc(C(C)(C)C)cc3)N=C2C)s1` [Example 14], the EC50 is 11.7 nM. For the compound `CC1=NN(c2ccc(C)c(C)c2)C(=O)/C1=C(/C)NNC(=O)c1ccc(C(=O)NCCC(=O)O)s1` [Example 9], the EC50 was 8.89 nM.

With `COC1CN(C(=O)c2ccc(C(=O)NN/C(C)=C3\C(=O)N(c4ccc(C(C)(C)C)cc4)N=C3C)s2)CC1OC` (stereo not shown) [Example 22], the EC50 was 5.78 nM. On to `CC1=NN(c2ccc(Cl)c(Cl)c2)C(=O)/C1=C(/C)NNC(=O)c1ccc(C(=O)N2CC(O)C(O)C2)s1` (stereo not shown) [Example 39], for which the EC50 was 3.9 nM. Consider `CC1=NN(c2ccc(C(F)(F)F)cc2)C(=O)/C1=C(/C)NNC(=O)c1ccc(C(=O)N2CCC(N(C)C)C2)s1` (stereo not shown) [Example 35], for which the EC50 is 6.93 nM.

Regarding `CC1=NN(c2ccc(Cl)c(Cl)c2)C(=O)/C1=C(/C)NNC(=O)c1ccc(C(=O)NCc2ccncc2)s1` [Example 38], the EC50 was 4.97 nM. On to `CC1=NN(c2ccc(C(C)(C)C)cc2)C(=O)/C1=C(/C)NNC(=O)c1ccc(C(=O)NCc2ccccn2)s1` [Example 19], for which the EC50 is 2.64 nM. On the same count and under the same terms, as for `CC1=NN(c2ccc(C)c(C)c2)C(=O)/C1=C(/C)NNC(=O)c1ccc(C(=O)N2CC(O)C(O)C2)s1` (stereo not shown) [Example 3], the figure is 5.63 nM. On the same count and under the same terms, the same measure for `CC1=NN(c2ccc(C(C)(C)C)cc2)C(=O)/C1=C(/C)NNC(=O)c1ccc(C(=O)NN(C)C)s1` [Example 16]: 3.94 nM; for `CC1=NN(c2ccc(Cl)c(Cl)c2)C(=O)/C1=C(/C)NNC(=O)c1ccc(C(=O)NC(C)C)s1` [Example 37]: 5.46 nM; for `CC1=NN(c2ccc(C(C)(C)C)cc2)C(=O)/C1=C(/C)NNC(=O)c1ccc(C(=O)NC(C)C)s1` [Example 11]: 1.16 nM.

On to `CC1=NN(c2ccc(C(C)(C)C)cc2)C(=O)/C1=C(/C)NNC(=O)c1ccc(C(=O)NCc2cccnc2)s1` [Example 20], for which the EC50 is 0.528 nM.

With `CC1=NN(c2ccc(C(C)(C)C)cc2)C(=O)/C1=C(/C)NNC(=O)c1ccc(C(=O)NCc2ccncc2)s1` [Example 12], the EC50 was 0.528 nM. The same measure, in the same setting: as for `CC1=NN(c2ccc(C(F)(F)F)cc2)C(=O)C1=C(C)NNC(=O)c1ccc(C(=O)N2CCCC2)s1` [Example 32], the figure is 6.53 nM; as for `COCCNC(=O)c1ccc(C(=O)NN/C(C)=C2\C(=O)N(c3ccc(C(C)(C)C)cc3)N=C2C)s1` [Example 26], 1.23 nM.

A further test concerns the target T1, human thrombopoietin receptor (c-mpl).
Experiment: not given
As to conditions: cell line characterisation, Takatoku et al.; cited from earlier work.
In the case of “TPO: Thrombopoietin (Pepro Tech EC), a cytokine consisting of 332 amino acids; reference stimulus at 10 ng/mL”, the “Proliferation of UT7/EPO-mpl cell line in response to TPO” value was “stimulated”.

The next test deals with UT7/EPO.
Experiment: not given
As to conditions: cell line characterisation, Takatoku et al.; cited from earlier work.
Regarding “TPO: Thrombopoietin (Pepro Tech EC), a cytokine consisting of 332 amino acids; reference stimulus at 10 ng/mL”, the “Response of mother cell line UT7/EPO to TPO” value is given as “no response”.
